System: human umbilical vein endothelial cells (HUVECs)
Experiment: MTT assay, effect of VEGF and Composition A1 on cell proliferation
Format: cell-based
Details: 0, 24, 48 and 72 hours, control group as basis
Protocol: Recombinant human vascular endothelial growth factor (VEGF) was purchased from R&D systems; Cat No. 293-VE. The HUVECs were used in the experiments. The cells were seeded in a 24-well plate at a density of 2×10^4 cells/well. The experiments include control group (not treated with VEGF) and the groups respectively treated with 1 ng/mL VEGF, 5 ng/mL VEGF, 10 ng/mL VEGF and 20 ng/mL VEGF for 0 hour, 24 hours, 48 hours and 72 hours. Each group was triplicated. The MTT assays were performed and values of OD 565 were measured in order to observe the effect of VEGF on cell growth.

## VEGF
1 ng/mL VEGF
  cell number / cell proliferation of HUVEC (OD 565, MTT): not significant
5 ng/mL VEGF
  cell number / cell proliferation of HUVEC (OD 565, MTT): not significant
10 ng/mL VEGF
  cell number / cell proliferation of HUVEC (OD 565, MTT): increased
20 ng/mL VEGF
  cell number / cell proliferation of HUVEC (OD 565, MTT): increased

— patent US20200316113A1, “USE OF COMPOSITION COMPRISING FERROUS AMINO ACID CHELATE IN MANUFACTURE OF MEDICAMENT FOR INHIBITING ANGIOGENESIS” (PROFEAT BIOTECHNOLOGY CO., LTD., priority 2017, published 2020)
